Data: US12435316B2, “Three dimensional human brain tumor models” (priority 2018, dated 2025)

Test system: 3D patient-derived meningioma models (pediatric patient's meningioma tissue)
Experiment: Drug treatment of 3D patient-derived meningioma models, live cell staining (calcein AM) and confocal imaging
Assay type: cell-based, human
Details: one month-old 3D pediatric meningioma models; drug 0.05 to 0.8 mM for 48 hours; calcein AM live stain; compared to etoposide, carmustine, irinotecan hydrochloride, temozolomide
Procedure: FIGS. 7A-7B show drug treatment of 3D patient-derived meningioma models. A pediatric patient's meningioma tissue was used to generate replicates of 3D tumor models. One month-old models were treated with chemotherapeutic drugs, etoposide (VP16), carmustine (BCNU), lomustine (CCNU), irinotecan hydrochloride (CPT11) and temozolomide (TMZ) of 0.05 to 0.8 mM for 48 hours. The models were stained with calcein AM (2 uM) for live cells and confocal imaged ([…] section, 35 sections). (FIG. 7A) Maximum projection of 3D image stacks of drug-treated models. Number indicates drug concentration in mM. Ctrl, control. Scale bar, […]. (FIG. 7B) Quantification of live cell counts in relation to drug doses.
FIGS. 7A-7B show an example of drug study using patient-derived tumor models. This example used a pediatric meningioma model to test commonly used chemotherapeutic drugs (etoposide, carmustine, lomustine, irinotecan hydrochloride and temozolomide). […] Additional studies will compare the in vitro findings with the patient's clinical responses to further determine the most optimal drug regimen.
Live/Dead Assay was used to image live cells in cultures, according to the manufacturer's protocol (ThermoFisher Scientific). […] The stained cultures were imaged with a fluorescence microscope at Ex/Em of 494/517 nm and 528/617 nm for Live and Dead stains, respectively. […]

Compound: O=NN(CCCl)C(=O)NC1CCCCC1 [lomustine]
- tumor cell-killing effects (live cell counts in relation to drug doses): strongest tumor cell-killing effects
